Data on one compound can be found in patent US12648924B2, “Prevention and treatment of effects of aging and age-associated disorders with ketone supplementation” (priority 2020, dated 2026).

A short description of this assay: KDE in LPS-induced sepsis, inflammation-induced atrophy, ad libitum fed (Experiment 5b). The settings on record: single 4 mL/kg KDE gavage after 10 mg/kg LPS. Format: in vivo, VM/Dk mice. The method, then:
VM-M3 Cell and Lipopolysaccharide Implantation: For VM-M3 implantation in the model characterization experiments (FIG. 1-5; FIG. 8-12), ˜1×10^6 VM-M3 cells (T. Seyfried, Boston College) in 300 μL sterile PBS (CA-M and CA-F) or 300 μL sterile PBS-only (SH-M and SH-F) were injected subcutaneously into the left abdominal flank resulting in primary tumor formation at the injection site, and subsequently systemically metastasizes to most major organs, namely the liver, kidneys, spleen, lungs, and brain. […] This method of implantation further minimized variability in markers of tumor progression, and therefore provides a useful optional method technique in the VM-M3 model for efficient analysis of potential therapeutic agents. To determine KDE-induced effects on CACS, 1×10^6 VM-M3 cells in 300 μL sterile PBS (KDE+VM-M3 and VM-M3) or 300 μL sterile PBS-only (Sham) were administered intraperitoneally (FIG. 6; FIG. 13). For LPS administration in the septic atrophy model, LPS (Escherichia coli 055:B5; L2880; Sigma-Aldrich, St. Louis, MO) was diluted in sterile PBS and administered intraperitoneally at 10 mg/kg as pilot work indicated a maximal, yet non-fatal, ˜15% bodyweight reduction at 10 mg/kg dose.
Body Composition: Bodyweight was assessed daily at the same time (7:00-9:00 AM). At EOL, bodyweight and weights of ascites fluid, primary tumor, calf (combined gastrocnemius & soleus), anterior thigh (quadriceps), intraperitoneal fat pads, liver and spleen tissue were measured (Table 1; Experiment 1a&b). A follow-up time course experiment was conducted at weeks 1, 2, and 3 to assess weekly changes in bodyweight and aforementioned tissues for both cancer and sham-matched control animals (Experiment 2). For follow up evaluation of KDE in CACS, bodyweight was tracked daily with tissue weight determined at 21-days, prior to EOL (Experiment 4c). All tissue weights were gathered at harvest and normalized to baseline bodyweight (not influenced by cachexia progression) to allow for appropriate comparison between animals. For evaluation of KDE in LPS, bodyweight was tracked daily for evaluation pre- and post-LPS administration (Experiment 5b&c).
Food Intake and Ketone Diester Administration: Standard diet dry food (2018 Teklad Global 18% Protein Rodent Diet, Harlan) was mixed with deionized water (1 g dry food/mL deionized water) into a consistent paste and placed on a 100×15 mm dish. Food intake was tracked daily at the same time (7:00-9:00) and replaced every other day to ensure fresh food. […] As pilot work indicated potential water evaporation in food paste in ventilated cages, dehydration standard curve was calculated across various volumes of plated food (5, 10, 25.0, 50.0, 100 g/food) with and without KDE over a two-day period. […]

Consider `CC(=O)CC(=O)OCCC(C)OC(=O)CC(C)=O` (stereo not shown) [KDE, R/S 1,3-butanediol acetoacetate diester], for which the “anorexic symptoms (percentage caloric restriction)” value (1 day post LPS) is recorded as “significantly reduced”. Moreover, the “attenuation of bodyweight loss” value (first 24 hours, vs LPS with water) is reported as 47%. The “chronic LPS-induced bodyweight loss” value (followed 13 days) was “significantly attenuated”. The “time to recovery (return to baseline bodyweight)” value (LPS alone did not recover within 13 days) is reported as no more than 10 days.
